Our source for the IC50 values is patent publication US12540143B2, “Methods and compositions for targeted protein degradation” (Ranok Therapeutics (Hangzhou) Co. Ltd., priority 2019, dated 2026).

Bounds are passed on as bounds.

This assay deals with MV4-11 cells. The experiment in a line: MV4-11 Cytotoxicity Assay. It is filed as cell-based, human. The following applies: Homo sapiens, MV4-11; 72 hr, CCK-8; read-out: MV4-11 cytotoxicity.
Turning to `Cc1sc2c(c1C)C(c1ccc(Cl)cc1)=N[C@@H](CC(=O)N1CCC(CN3CCN(Cc4ccc(-n5c(C(=O)NCCN6CCCCC6)nnc5-c5cc(C(C)C)c(O)cc5O)cc4)CC3)CC1)c1nnc(C)n1-2` [Compound 107, (S)-4-(4-((4-((1-(2-(4-(4-chlorophenyl)-2,3,9-trimethyl-6H-thieno[3,2-f][1,2,4]triazolo[4,3-a][1,4]diazepin-6-yl)acetyl)piperidin-4-yl)methyl)piperazin-1-yl)methyl)phenyl)-5-(2,4-dihydroxy-5-isopropylphenyl)-N-(2-(piperidin-1-yl)ethyl)-4H-1,2,4-triazole-3-carboxamide, trifluoroacetic acid], the IC50 is less than 100 nM. Under `Cc1sc2c(c1C)C(c1ccc(Cl)cc1)=N[C@@H](CCNCC1CCN(C(=O)C3CCN(Cc4ccc(-n5c(O)nnc5-c5cc(C(C)C)c(O)cc5O)cc4)CC3)CC1)c1nnc(C)n1-2` [Compound 64, (4-(((2-((6S)-4-(4-chlorophenyl)-2,3,9-trimethyl-6H-thieno[3,2-f][1,2,4]triazolo[4,3-a][1,4]diazepin-6-yl)ethyl)amino)methyl)piperidin-1-yl)(1-(4-(3-(2,4-dihydroxy-5-isopropylphenyl)-5-hydroxy-4H-1,2,4-triazol-4-yl)benzyl)piperidin-4-yl) methanone, trifluoroacetic acid] stands 100 to 1000 nM; under `CCN(CC)CCNC(=O)c1nnc(-c2cc(C(C)C)c(O)cc2O)n1-c1ccc(CN2CCN(CC3CCN(C(=O)C[C@@H]4N=C(c5ccc(Cl)cc5)c5c(sc(C)c5C)-n5c(C)nnc54)CC3)CC2)cc1` [Compound 118, (S)-4-(4-((4-((1-(2-(4-(4-chlorophenyl)-2,3,9-trimethyl-6H-thieno[3,2-f][1,2,4]triazolo[4,3-a][1,4]diazepin-6-yl)acetyl)piperidin-4-yl)methyl)piperazin-1-yl)methyl)phenyl)-N-(2-(diethylamino)ethyl)-5-(2,4-dihydroxy-5-isopropylphenyl)-4H-1,2,4-triazole-3-carboxamide, trifluoroacetic acid], less than 100 nM. In the case of `Cc1sc2c(c1C)C(c1ccc(Cl)cc1)=N[C@@H](CCNCCOCCOc1ccc(-n3c(O)nnc3-c3cc(C(C)C)c(O)cc3O)cc1)c1nnc(C)n1-2` [Compound 63, (S)-4-(4-(4-(2-(2-((2-(4-(4-chlorophenyl)-2,3,9-trimethyl-6H-thieno[3,2-f][1,2,4]triazolo[4,3-a][1,4]diazepin-6-yl)ethyl)amino)ethoxy)ethoxy)phenyl)-5-hydroxy-4H-1,2,4-triazol-3-yl)-6-isopropylbenzene-1,3-diol, trifluoroacetic acid], the IC50 fell in the range of 100 to 1000 nM. Under `Cc1sc2c(c1C)C(c1ccc(Cl)cc1)=N[C@@H](CC(=O)N1CCC(CN3CCN(Cc4ccc(-n5c(C(=O)NCCN6CCCCC6)nnc5-c5ccc(O)cc5O)cc4)CC3)CC1)c1nnc(C)n1-2` [Compound 110, (S)-4-(4-((4-((1-(2-(4-(4-chlorophenyl)-2,3,9-trimethyl-6H-thieno[3,2-f][1,2,4]triazolo[4,3-a][1,4]diazepin-6-yl)acetyl)piperidin-4-yl)methyl)piperazin-1-yl)methyl)phenyl)-5-(2,4-dihydroxyphenyl)-N-(2-(piperidin-1-yl)ethyl)-4H-1,2,4-triazole-3-carboxamide, trifluoroacetic acid] stands 100 to 1000 nM; under `CCc1cc(-c2nnc(C(=O)NC(C)C)n2-c2ccc(CN3CCN(CC4CCN(C(=O)C[C@@H]5N=C(c6ccc(Cl)cc6)c6c(sc(C)c6C)-n6c(C)nnc65)CC4)CC3)cc2)c(O)cc1O` [Compound 105, (S)-4-(4-((4-((1-(2-(4-(4-chlorophenyl)-2,3,9-trimethyl-6H-thieno[3,2-f][1,2,4]triazolo[4,3-a][1,4]diazepin-6-yl)acetyl)piperidin-4-yl)methyl)piperazin-1-yl)methyl)phenyl)-5-(5-ethyl-2,4-dihydroxyphenyl)-N-isopropyl-4H-1,2,4-triazole-3-carboxamide, trifluoroacetic acid], less than 100 nM. On to `Cc1sc2c(c1C)C(c1ccc(Cl)cc1)=N[C@@H](CC(=O)N1CCC(CN3CCN(c4ccc(-n5c(O)nnc5-c5cc(C(C)C)c(O)cc5O)cc4)CC3)CC1)c1nnc(C)n1-2` [Compound 41, (S)-2-(4-(4-chlorophenyl)-2,3,9-trimethyl-6H-thieno[3,2-f][1,2,4]triazolo[4,3-a][1,4]diazepin-6-yl)-1-(4-((4-(4-(3-(2,4-dihydroxy-5-isopropylphenyl)-5-hydroxy-4H-1,2,4-triazol-4-yl)phenyl)piperazin-1-yl)methyl)piperidin-1-yl)ethanone], for which the IC50 was less than 100 nM. Under `CCc1cc(-c2nnc(O)n2-c2ccc(CN3CCN(CC4CCN(CC[C@@H]5N=C(c6ccc(Cl)cc6)c6c(sc(C)c6C)-n6c(C)nnc65)CC4)CC3)cc2)c(O)cc1O` [Compound 2, 4-(4-(4-((4-((1-(2-((6S)-4-(4-chlorophenyl)-2,3,9-trimethyl-6H-thieno[3,2-f][1,2,4]triazolo[4,3-a][1,4]diazepin-6-yl)ethyl)piperidin-4-yl)methyl)piperazin-1-yl)methyl)phenyl)-5-hydroxy-4H-1,2,4-triazol-3-yl)-6-ethylbenzene-1,3-diol, trifluoroacetic acid] stands 100 to 1000 nM; under `Cc1sc2c(c1C)C(c1ccc(Cl)cc1)=N[C@@H](CC(=O)NCCOCCN1CCC(Cc3ccc(-n4c(O)nnc4-c4cc(C(C)C)c(O)cc4O)cc3)CC1)c1nnc(C)n1-2` [Compound 37, 2-((6S)-4-(4-chlorophenyl)-2,3,9-trimethyl-6H-thieno[3,2-f][1,2,4]triazolo[4,3-a][1,4]diazepin-6-yl)-N-(2-(2-(4-(4-(3-(2,4-dihydroxy-5-isopropylphenyl)-5-hydroxy-4H-1,2,4-triazol-4-yl)benzyl)piperidin-1-yl)ethoxy)ethyl)acetamide, trifluoroacetic acid], 100 to 1000 nM. The same measure for `Cc1sc2c(c1C)C(c1ccc(Cl)cc1)=N[C@@H](CC(=O)NCC(=O)NCCOCCOc1ccc(-n3c(O)nnc3-c3cc(C(C)C)c(O)cc3O)cc1)c1nnc(C)n1-2` [Compound 55, (S)-2-(4-(4-chlorophenyl)-2,3,9-trimethyl-6H-thieno[3,2-f][1,2,4]triazolo[4,3-a][1,4]diazepin-6-yl)-N-(2-((2-(2-(4-(3-(2,4-dihydroxy-5-isopropylphenyl)-5-hydroxy-4H-1,2,4-triazol-4-yl)phenoxy)ethoxy)ethyl)amino)-2-oxoethyl)acetamide]: 100 to 1000 nM.
